Data reported in article PMC8877008, “Synthesis and Structure–Activity Relationship Studies of Benzimidazole-4,7-dione-Based P2X3 Receptor Antagonists as Novel Anti-Nociceptive Agents” (Molecules, 2022).

Key:
[1] = In vivo pharmacokinetic study in rats; conditions: male, SD, plasma, 10 mg/kg; oral administration, 10 mpk, rat
Method: Experiments were used to determine any changes during in vivo pharmacokinetics, such as absorption, distribution, metabolism, and excretion of compounds, which are correlated with drug efficacy and toxicity. Pharmacokinetic experiments using rats were mainly conducted using 8-week-old SD male rats (Osan, Kyungki-Do, Korea). A tube was inserted into the femoral vein, the intravenous administration group was administered through the tube, and the oral administration group was administered the drug orally using oral gavage (1–2 mL/kg). Blood collection for the drug was performed at fixed times ([…], 0.25, 0.5, 1, 2, 4, 6, 8, and 24 h) from the time when the tube was inserted into the femoral vein. Blood was centrifuged to separate plasma, and plasma and urine samples were pretreated (minimum 0.5 ng/mL and maximum 8000 ng/mL) using an appropriate organic solvent. For sample preparation, the working solution of rat blank plasma was spiked, followed by preparation of plasma samples with solid phase extraction. Next, the concentration of 100 μL eluent was analyzed by LC–MS/MS (Mass spectrometry 4000 Qtrap with HPLC, Agilent 1200, Santa Clara, CA, USA). The noncompartmental pharmacokinetic parameters were calculated from the blood concentration–time data of the drug analyzed using the noncompartmental analysis model of WinNonlin (Pharsight ver 6.4, Princeton, NJ, USA).

CIPN rats = assay: Antiallodynic effect, cisplatin chemotherapy-induced peripheral neuropathy (CIPN) model, von Frey; format: in vivo, male Sprague-Dawley rats; conditions: intravenous 12 mg/kg, von Frey filaments, five rats
From the text: The experimental protocol (CNUHIACUC-20039) was approved by the Institutional Animal Care and Use Committee of Chonnam National University Hospital. Animal models of neuropathic pain (NP) were constructed by spinal nerve ligation (SNL) or chemotherapeutics injection (chemotherapy-induced peripheral neuropathy, CIPN) in male Sprague-Dawley rats (weight, 150–180 g). Briefly, under sevoflurane anesthesia, the left L5 and L6 spinal nerves near the vertebral column were separated and tightly ligated using 6-0 silk. Cisplatin was administered intraperitoneally at 2 mg/kg once daily for 4 days. The paw withdrawal threshold (PWT) to mechanical stimuli was measured using calibrated 0.41–15.2 g von Frey filaments (Stoelting, Wood Dale, IL, USA), as described previously. […] The antiallodynic effects of the intravenous vehicle and LDD4692 (3mg/rat) were evaluated and expressed as the percentage of the maximal possible effect (% MPE). % MPE = [(post drug PWT − post injured baseline PWT)/(cutoff PWT − post injured baseline PWT)] × 100
For the analysis of antagonistic activities, all data were calculated by Origin Pro 9.1 software provided by Originlab and the fitting of graphs was proceeded by the growth/sigmoidal and hill1 process within no weights for data selections. For the analysis of the behavioral assessments of pain models, all data are expressed as mean ± SEM. […]

Solubility in DMSO/water = format: physicochemical; conditions: DMSO in water
CYP 1A2 = molecular target: T1, CYP 1A2 (Homo sapiens, UniProt P05177); assay: CYP450 inhibition 1A2; format: in vitro ADME; conditions: compound 10 μM
T1 sequence (P05177 1-516): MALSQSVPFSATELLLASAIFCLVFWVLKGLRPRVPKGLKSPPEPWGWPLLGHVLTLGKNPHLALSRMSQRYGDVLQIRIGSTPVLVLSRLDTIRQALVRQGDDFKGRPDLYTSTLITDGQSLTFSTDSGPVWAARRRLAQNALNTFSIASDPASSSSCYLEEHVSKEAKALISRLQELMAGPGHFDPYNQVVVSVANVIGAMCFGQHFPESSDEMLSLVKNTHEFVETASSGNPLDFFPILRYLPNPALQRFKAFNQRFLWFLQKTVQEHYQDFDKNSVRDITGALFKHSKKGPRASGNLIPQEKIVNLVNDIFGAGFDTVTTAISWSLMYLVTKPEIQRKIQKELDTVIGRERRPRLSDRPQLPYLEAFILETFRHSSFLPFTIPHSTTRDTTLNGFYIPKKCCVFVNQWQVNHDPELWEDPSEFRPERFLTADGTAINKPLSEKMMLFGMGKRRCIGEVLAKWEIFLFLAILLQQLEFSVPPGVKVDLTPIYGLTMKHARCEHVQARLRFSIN

[2] = Metabolic stability in microsomal fraction, mouse; format: in vitro ADME
BBB-PAMPA permeability = format: in vitro ADME; conditions: UV/vis spectrophotometry
[3] = Metabolic stability in microsomal fraction, human; format: in vitro ADME; conditions: human microsomal fraction, read-out: Metabolic Stability (Microsomal Fr.) % remaining after 30 min
CYP 2C19 = CYP 2C19 (Homo sapiens, UniProt P33261); assay: CYP450 inhibition 2C19; format: in vitro ADME; conditions: compound 10 μM
CYP 2C19, sequence (P33261 whole entry): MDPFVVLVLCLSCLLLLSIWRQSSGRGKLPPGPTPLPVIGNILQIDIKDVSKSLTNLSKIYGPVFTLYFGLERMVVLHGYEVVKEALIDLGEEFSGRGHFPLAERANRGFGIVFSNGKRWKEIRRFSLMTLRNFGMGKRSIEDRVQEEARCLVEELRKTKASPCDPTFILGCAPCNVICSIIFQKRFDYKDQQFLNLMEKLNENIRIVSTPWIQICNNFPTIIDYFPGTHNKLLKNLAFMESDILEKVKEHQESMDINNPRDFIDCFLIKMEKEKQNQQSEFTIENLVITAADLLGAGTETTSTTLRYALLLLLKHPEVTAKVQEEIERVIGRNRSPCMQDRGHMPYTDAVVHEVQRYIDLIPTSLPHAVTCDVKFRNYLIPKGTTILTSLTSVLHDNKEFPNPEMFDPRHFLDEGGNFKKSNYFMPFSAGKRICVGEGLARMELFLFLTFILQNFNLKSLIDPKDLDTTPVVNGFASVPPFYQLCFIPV

## O=C1C(NC2CCN(C(=O)c3ccc(F)c(F)c3)CC2)=C(Cl)C(=O)c2[nH]c(C(F)(F)F)nc21 [14h, 6-Chloro-5-((1-(3,4-difluorobenzoyl)piperidin-4-yl)amino)-2-(trifluoromethyl)-1H-benzo[d]imidazole-4,7-dione]
[1]
  AUC(0-inf): 250 ng·h/mL
  Cmax: 40 ng/mL
  Tmax: 0.33 h
  half-life: 7.58 h
CIPN rats
  Maximal possible effect (% MPE), antiallodynic: 78%
Solubility in DMSO/water
  Solubility: soluble in 30% DMSO in water
CYP 1A2
  CYP450 inhibition 1A2: 6.78%
[2]; microsomal fraction, species not given, lowest of human, rat, mouse is mouse, read-out: Metabolic stability, % remaining after 30 min incubation (summary)
  remaining at 0.5 h: > 92%
[2]; mouse, mouse microsomal fraction, read-out: Metabolic Stability (Microsomal Fr.) % remaining after 30 min
  remaining at 0.5 h: 92.8%
BBB-PAMPA permeability
  BBB-PAMPA logPe: <−6.000 logPe
[3]
  remaining at 0.5 h: > 99%
CYP 2C19
  CYP450 inhibition 2C19: 25.6%
